Data as given in US11249094B2, “Astrocyte traumatome and neurotrauma biomarkers” (THE REGENTS OF THE UNIVERSITY OF CALIFORNIA, priority 2015, dated 2022).

Tested on: Trauma-released GFAP upper and lower BDPs
Assay: GFAP breakdown products in conditioned medium of severely stretched astrocyte cultures with protease inhibitors (immunoblot)
Type: cell-based, human
Settings: 48 hour post-injury, DAKO anti-GFAP polyclonal antibody immunoblot
Method: Human astrocytes were isolated from 16-18 week donated fetal neocortical brain specimen, purified and then differentiated on deformable membranes (Wanner, 2012). Cell membrane wounding/compromise, mechanoporation (Barbee, 2005), was determined using Propidium iodide (PI) uptake in living cultures accompanied by nuclear shape assessment (middle picture, stained nuclei, Hoechst stained after fixation, with little pink dots, nucleoli that are PI-stained). Cell death was determined by PI uptake accompanied by condensed nuclei (pyknotic nuclei with compacted chromatin and bright Hoechst and PI stains). Significant percent of cell integrity compromise is shown 30 min post-injury (left graph) while significant cell death was present two days post-injury (bars on the right).
In order to capture the full range of signal intensity, signals from multiple exposures of immunoblots were densitometrically measured (optical densities) and scaled to match a single exposure.
Shown in FIG. 25 are two film exposures of GFAP, upper and lower breakdown products 48 hour post-injury in conditioned medium samples using the DAKO anti-GFAP polyclonal antibody. Severely stretched and unstretched cultures received either no drug, calpain inhibitor PD150606 (100 μM, “Cali”) or pan-caspase inhibitor Z-VAD FMK (8.8 μM, “Casi”). […]

Row | Compound | Trauma-released GFAP upper and lower BDPs in conditioned medium (100 μM) | Trauma-released GFAP upper and lower BDPs in conditioned medium (8.8 μM)
1 | O=C(O)/C(S)=C/c1ccc(I)cc1 [PD150606] | reduced | 
2 | Z-VAD FMK |  | reduced
